In US10253107B2, “Use of endocytosis inhibitors and antibodies for cancer therapy” (THE UNIVERSITY OF QUEENSLAND, priority 2012, dated 2019):
“Also recorded” adds a separate entry of the source. Like-named read-outs stand apart in the source and are kept apart here.

Tests used:
dynamin = conditions: cited from earlier work
HeLa cells [1] = conditions: dose dependent, previous study (23), read-out: IC50 of dynasore mediated endocytosis inhibition; cited from earlier work
A431 cells [2] = assay: Dynasore 24 hour treatment, A431 cells; assay type: cell-based, human
Procedure: (§1) FIG. 23 is a photographic representation showing example panels for correlation between inhibited EGFR endocytosis and MHC class I and class II status. (A) Immunofluorescence showing manipulation of EGFR trafficking using a dynamin inhibitor. A431 cells were serum-starved for 3 hours and then treated with different concentrations of dynasore (0, 60 and 100 μM) for 0.5 and 24 hours. 15 minutes EGF-Alexa488 (100 ng/mL) uptakes were performed to monitor the trafficking of the ligand bound EGFRs (in green). The nuclei are shown in blue. (B) immunofluorescence showing changes in MHC class I and class II distributions caused by altered EGFR trafficking. A431 cells were treated with different concentrations of dynasore (0, 60 and 100 μM) for 0.5 hours, followed by fixation and permeabilization. MHC class I and class II were then labeled with primary antibodies PE-HLA-ABC and PE-HLA-DR, respectively, followed by secondary antibody labeling (Alexa 594). MHC I and II are shown in red while the nuclei are shown in blue.

[3] = test system: EGFR endocytosis in A431 cells; assay: EGF-Alexa488 uptake immunofluorescence (ligand-induced EGFR endocytosis); assay type: cell-based, human; conditions: 15 min EGF-Alexa488 uptake
Procedure: as §1
FIG. 29 is a photographic representation showing Dyngo4a inhibition of EGFR endocytosis. […] Immunofluorescence was conducted to confirm the manipulation of EGFR trafficking using Dyngo4a. A431 cells were serum-starved for 3 hours and then treated with different concentrations of (A) Dyngo4a (0 and 30 μM) for 30 min. […] The nuclei are shown in blue. […]

A431 cells [4] = assay: MHC class I and class II immunofluorescence in A431 cells; assay type: cell-based, human
Procedure: as §1

HeLa cells [5] = assay: Dynasore 24 hour treatment, HeLa cells; assay type: cell-based
KJD cells [6] = assay: Flow cytometry-based ADCC assay on KJD cells; assay type: cell-based, human; conditions: for effect of dynamin inhibitor on cetuximab-dependent ADCC of KJD cells: inhibitor + cetuximab + PBMC
Procedure: Flow cytometry was performed on triplicate tubes per treatment. Target cells were harvested and labeled with 0.5 μM CFSE (Life technologies) for 10 minutes, followed by washing to remove excess dye. […] 30 μM Dyngo4a was added at given time points as described in figure legends. After the incubation, 5 ul of 7-AAD (BD Pharmingen) was added into each tube to indicate the target cells that were killed. Samples were analyzed by flow cytometry (BD FACSCanto).

A431 cells [7] = assay: Flow cytometry-based ADCC assay on A431 cells; assay type: cell-based, human; conditions: FACS; for effect of dynamin inhibitor on cetuximab-dependent ADCC of A431 cells: inhibitor + cetuximab + PBMC
Procedure: Flow cytometry was performed on triplicate tubes per treatment. Target cells were harvested and labeled with 0.5 μM CFSE (Life technologies) for 10 minutes, followed by washing to remove excess dye. […] 30 μM Dyngo4a was added at given time points as described in figure legends. After the incubation, 5 ul of 7-AAD (BD Pharmingen) was added into each tube to indicate the target cells that were killed. Samples were analyzed by flow cytometry (BD FACSCanto). The percentage of specific target cell death was calculated using the following formula:

A431 cells [8] = assay: Cetuximab mediated ADCC MTS assay; assay type: cell-based, human; conditions: Dyngo4a 30 μM + cetuximab 60 μg/mL + PBMC, vs cetuximab single treatment
Procedure: MTS assays were performed to measure absorbance at 490 nm. The cell viability is presented as the percentage of untreated viable cells. […] (B-I) MTS assays were performed to measure absorbance at 490 nm. (B-II) The target cell viability is presented as the percentage of untreated viable cells and calculated following the formula: % of untreated cells=(experimental OD−PBMC OD)/(A431 maximum OD−medium OD)×100%
Target cells (A431, number=2,500 per well) were seeded in 96-well round bottom plates and allowed to settle down for 2 hours. […] After 24 hours incubation, 20 μL MTS reagent was added into each well and incubated at 37° C. in 5% CO2 for 2 hours. The optical density (OD value) was read at 490 nm by a microplate spectrophotometer.

KJD cells [9] = assay: MTS/MTT toxicity assay in the absence of PBMC, KJD; assay type: cell-based; conditions: absence of PBMC/ADCC, single agent or with cetuximab
Procedure: (§2) FIG. 30 is a graphical representation of a multi-parametric FACS analysis showing that manipulation of EGFR trafficking with dynamin inhibitors, Dyngo4a and Pyrimidyn-7, results in enhanced ADCC in cetuximab-sensitive and insensitive cells. cetuximab-dependent ADCC assays were performed essentially according to the procedures outlined in FIGS. 27 and 28. […] (C) Percentage of specific KJD cell death is shown in the presence of dynamin inhibitors only. […] (E) An MTS assay was conducted in the absence of PBMC to assess toxicity of compounds in the absence of ADCC. […] Triton X100 is added as a control for maximum cell death. (F) An MTS assay was conducted in the absence of PBMC to assess toxicity of compounds in the absence of ADCC. […] Triton X100 is added as a control for maximum cell death. (G) An MTS assay was conducted to assess possible toxicity of dynamin inhibitors to PBMC cells. […] Triton X100 is added as a control for maximum cell death.
(§3) Compounds Dyngo4a and Pyrimidyn-7 were tested in both multi-variant FACS analysis assay as described in Example 4 and by MTT assay. In particular, compounds were tested for improvement of cetuximab-dependent ADCC against cetuximab-sensitive A431 cells and cetuximab-resistant KJD cells and for single agent toxicity.

A431 cells [10] = assay: Immunofluorescence of cetuximab-EGFR internalization, A431; assay type: cell-based, human; conditions: 4-hour time-course, Dyngo4a added
Procedure: (§4) A431 cells were seeded on coverslips in 12-well plates and incubated overnight to reach 80% confluence. […] 30 μM dyngo4a was added at given time points as described in figure legends. The cells were then washed three times in ice cold PBS and fixed in 4% PFA/PBS for 30 minutes, followed by permeabilization in 0.1% TritonX/PBS (PBTX) for 20 minutes. […] The coverslips were mounted on slides in Prolong Gold (Life technologies). Images were acquired using a Zeiss 510 Meta confocal with a 63× objective.

A431 cells [11] = assay: MTS/MTT toxicity assay in the absence of PBMC, A431; assay type: cell-based
Procedure: as §2, §3

PBMC = assay: MTS/MTT toxicity of dynamin inhibitors to PBMC; assay type: cell-based; conditions: for toxicity to PBMC: MTS/MTT, single agent
Procedure: Dyngo4a (0 and 30 μM) was added at the end of the incubation. 10% Triton was added to A431 cells after 24-hour incubation with PBMCs for cell death control. The ADCC effects were measured by MTS assay. The cell viability was presented as OD values at 490 nm. The average of OD values released from background was subtracted from effector cell controls (A-II) and target/effector tests (A-III).
as §2, §3

KJD cells [12] = assay: Immunofluorescence of cetuximab-EGFR trafficking, KJD; assay type: cell-based, human; conditions: incubation with Dyngo4a
Procedure: FIG. 28 is a photographic and graphical representation of a multi-parametric FACS analysis showing that manipulation of EGFR trafficking with dynamin inhibitors results in improved ADCC in cetuximab-insensitive cells. (A) Immunofluorescence imaging of cetuximab trafficking status in KJD cells. […] 7-AAD was added at the end of the 4-hour assay to label dead cells prior to FACS analysis. (B) Gating strategies used for the assessment of specific target cell death. FITC indicates CFSE while PerCP-Cy5.5 indicates 7-AAD. The dead target cells appear in the upper right quadrant, CFSE painted and 7-AAD positive. (C.1) KJD cell death under different conditions. (C.2) The percentage of specific KJD cell death was calculated. Data shown are an average of 3 experiments+/−SEM by Two-Way ANOVA with Bonferroni post test. ****: P≤0.0001; ***: P≤0.001; **: P≤0.01; *: P≤0.05. ns: no significance.
as §4

[13] = A431, dynasore 0, 60, 100 μM, 0.5 hours

## N#C/C(=C\c1ccc(O)c(O)c1)C(=O)NCCCNC(=O)/C(C#N)=C/c1ccc(O)c(O)c1 [Bis-T-22, 2-cyano-N-{3-[2-cyano-3-(3,4-dihydroxyphenyl)-acryloylamino]-propyl}-3-(3-,4-dihydroxyphenyl)-acrylamide]
dynamin; absence of PS liposomes, dynamin rings
  basal dynamin GTPase activity: stimulates basal dynamin GTPase activity
dynamin; dynamin activated by phosphatidylserine (PS) liposomes
  inhibition of helical dynamin: potent in vitro inhibitor of dynamin

## O=C(N/N=C/c1ccc(O)c(O)c1)c1cc2ccccc2cc1O [Dynasore, 3-hydroxynaphthalene-2-carboxylic acid (3,4-dihydroxybenzylidene) hydrazide]
HeLa cells [1]
  IC50: ~15 µM
A431 cells [2]
  cell morphology after 24 hours dynasore: cellular nuclear condensation
[3]
  ligand-induced EGFR endocytosis: successfully functioned as an endocytosis inhibitor
A431 cells [4]; A431, EGF stimulation coupled with dynasore inhibition
  plasma membrane levels of MHCI: no longer detectable
A431 cells [4]; [13]
  MHCI signal: increasing MHCI signal
  MHCII signal: decrease in MHCII signal
HeLa cells [5]
  cell morphology after 24 hours dynasore: appeared apoptotic or to have cytokinetic defects

## O=C(N/N=C/c1cc(O)c(O)cc1O)c1cc2ccccc2cc1O [Dyngo-4a]
KJD cells [6]; Dyngo4a 30 μM + cetuximab 60 μg/mL + PBMC, 4 hours
  cetuximab-induced ADCC with Dyngo4a, KJD cell killing: greater than 40%
KJD cells [6]; Dyngo4a + Herceptin + PBMC, FACS
  effect of Dyngo4a on Herceptin-dependent ADCC of KJD cells: enhance Herceptin-dependent ADCC of KJD cells even more so
KJD cells [6]; Dyngo4a alone, without cetuximab
  tumor cell killing by inhibitor alone: did not kill tumor cells
KJD cells [6]; FACS
  effect of dynamin inhibitor on cetuximab-dependent ADCC of KJD cells: improve cetuximab-dependent ADCC; also recorded: enhance both cetuximab-dependent and Herceptin-dependent ADCC
A431 cells [7]; Dyngo4a + Herceptin + PBMC
  effect of Dyngo4a on Herceptin-dependent ADCC of A431 cells: enhance both cetuximab-dependent and Herceptin-dependent ADCC
A431 cells [7]
  effect of dynamin inhibitor on cetuximab-dependent ADCC of A431 cells: increased level of cetuximab-induced ADCC; also recorded: improve cetuximab-dependent ADCC; also recorded: enhance both cetuximab-dependent and Herceptin-dependent ADCC
A431 cells [8]
  cetuximab mediated ADCC in presence of dynamin inhibitor (cell viability, MTS): cells lost more viability
KJD cells [9]
  toxicity to KJD cells: no toxicity as a single agent; also recorded: no significant toxicity on KJD cells
A431 cells [10]
  surface and internalized levels of cetuximab: increases surface levels of cetuximab and decreases internalized levels
A431 cells [11]
  toxicity to A431 cells: no toxicity as a single agent
A431 cells [11]; human
  toxicity to A431 cells: no significant toxicity on A431 cells
[3]
  ligand-induced EGFR endocytosis: has an inhibitory effect on the ligand-induced EGFR endocytosis
PBMC; Dyngo4a alone and with cetuximab, MTS, vs negative and 10% Triton controls
  cell viability of PBMCs (effector cells): did not cause large cell viability reduction in PBMCs
PBMC
  toxicity to PBMC: no toxicity as a single agent; also recorded: no significant toxicity
KJD cells [12]
  plasma membrane expression of EGFR: increased the plasma membrane expression of EGFR

## CCCCCCCCCCCCNc1cc(C)nc(NCCN(C)C)n1 [Pyrimidyn-7]
KJD cells [6]; KJD cells (FIG. 30C), inhibitor only
  cell death by ADCC in the absence of cetuximab: Some increase in cell death
KJD cells [6]; FACS
  effect of dynamin inhibitor on cetuximab-dependent ADCC of KJD cells: improve cetuximab-dependent ADCC
A431 cells [7]
  effect of dynamin inhibitor on cetuximab-dependent ADCC of A431 cells: improve cetuximab-dependent ADCC
KJD cells [9]
  toxicity to KJD cells: showed single agent toxicity; also recorded: significant death of KJD cells
A431 cells [11]; MTS/MTT, absence of PBMC/ADCC, single agent or with cetuximab
  toxicity to A431 cells: showed single agent toxicity; also recorded: significant death of A431 cells
PBMC
  toxicity to PBMC: showed single agent toxicity; also recorded: shows toxicity
